ChEMBL document CHEMBL1201862, “PubChem BioAssay data set” (2004)
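1) Cells in 96-well plates. 2) Compound, 48 h, 5 concentrations. 3) Linear interpolation between surrounding doses. 4) Unreached endpoint = highest concentration. Abbreviation: GI50, concentration required for 50% inhibition of growth.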 The source made the active and inactive calls. Rule as the data show it: active = GI50 up to about 1.1 µM and inactive = higher.

Key:
Assay in all cases: NCI anticancer screen, dose series, 48 h
A498 = test system: A498
COLO 205 = test system: COLO 205
HL-60 = test system: HL-60
HT-29 = test system: HT-29
IGROV-1 = test system: IGROV-1
KM12 = test system: KM12
LOX IMVI = test system: LOX IMVI
MDA-MB-435 = test system: MDA-MB-435
NCI/ADR-RES = test system: NCI/ADR-RES
OVCAR-3 = test system: OVCAR-3
OVCAR-4 = test system: OVCAR-4
OVCAR-8 = test system: OVCAR-8
PC-3 = test system: PC-3
SF-539 = test system: SF-539
SK-MEL-28 = test system: SK-MEL-28
SK-MEL-2 = test system: SK-MEL-2
SK-OV-3 = test system: SK-OV-3
SR = test system: SR
UACC-62 = test system: UACC-62
Hs-578T = test system: Hs-578T

Row | SMILES | GI50 (A498) | GI50 (COLO 205) | GI50 (HL-60) | GI50 (HT-29) | GI50 (IGROV-1) | GI50 (KM12) | GI50 (LOX IMVI) | GI50 (MDA-MB-435) | GI50 (NCI/ADR-RES) | GI50 (OVCAR-3) | GI50 (OVCAR-4) | GI50 (OVCAR-8) | GI50 (PC-3) | GI50 (SF-539) | GI50 (SK-MEL-28) | GI50 (SK-MEL-2) | GI50 (SK-OV-3) | GI50 (SR) | GI50 (UACC-62) | GI50 (Hs-578T)
1 | O=C(O)c1ccc([N+](=O)[O-])c(P(=O)(O)O)c1 | > 100 µM (inactive) | > 100 µM (inactive) | > 100 µM (inactive) | > 100 µM (inactive) | > 100 µM (inactive) | > 100 µM (inactive) | > 100 µM (inactive) | > 100 µM (inactive) | > 100 µM (inactive) | > 100 µM (inactive) | > 100 µM (inactive) | > 100 µM (inactive) | > 100 µM (inactive) | > 100 µM (inactive) | > 100 µM (inactive) | > 100 µM (inactive) | > 100 µM (inactive) | > 100 µM (inactive) | > 100 µM (inactive) | 
2 | C[C@]12CC[C@H](O)CC1=CC[C@@H]1C2CC[C@]2(C)c3nn(-c4ccc(F)cc4)nc3CC12 (some centres undefined) | 60.1 µM (inactive) | 46.5 µM (inactive) | 17.5 µM (inactive) | 22.4 µM (inactive) | > 100 µM (inactive) | 24.3 µM (inactive) |  | 87.3 µM (inactive) |  | > 100 µM (inactive) | 16.6 µM (inactive) | 85.7 µM (inactive) | 52.2 µM (inactive) | 18.2 µM (inactive) | > 100 µM (inactive) |  | 39.4 µM (inactive) | > 100 µM (inactive) | 43.7 µM (inactive) | 39.3 µM (inactive)
3 | CN(C)C1(C#N)CCC2(CC1)OCCO2 | > 100 µM (inactive) | > 100 µM (inactive) | > 100 µM (inactive) | > 100 µM (inactive) | > 100 µM (inactive) | > 100 µM (inactive) | > 100 µM (inactive) |  |  | > 100 µM (inactive) | > 100 µM (inactive) | > 100 µM (inactive) |  | > 100 µM (inactive) | > 100 µM (inactive) | > 100 µM (inactive) | > 100 µM (inactive) | > 100 µM (inactive) | > 100 µM (inactive) | 
4 | C=CCCCCCCCCC(=O)ON(Cc1ccc(O)c(OC)c1)C(=O)C(F)(F)F | 44.1 µM (inactive) | > 100 µM (inactive) | 12.4 µM (inactive) | > 100 µM (inactive) | > 100 µM (inactive) | 52.5 µM (inactive) | > 100 µM (inactive) | > 100 µM (inactive) | > 100 µM (inactive) |  | > 100 µM (inactive) | > 100 µM (inactive) |  | > 100 µM (inactive) | > 100 µM (inactive) |  | > 100 µM (inactive) | 22.9 µM (inactive) | 49 µM (inactive) | 10.8 µM (inactive)
5 | C=Cc1cncc(C#N)c1CCc1c(C#N)cncc1C=C | > 10 µM (inactive) | > 10 µM (inactive) | > 10 µM (inactive) | > 10 µM (inactive) | > 10 µM (inactive) | > 10 µM (inactive) | > 100 µM (inactive) |  |  | > 10 µM (inactive) | > 10 µM (inactive) | > 10 µM (inactive) |  | > 10 µM (inactive) | > 10 µM (inactive) | > 10 µM (inactive) | > 10 µM (inactive) | > 10 µM (inactive) | > 10 µM (inactive) | 
6 | COc1ccc2c(c1)[n+]([O-])c(-c1ccc([N+](=O)[O-])cc1)c(N)[n+]2[O-] | > 100 µM (inactive) | 47.4 µM (inactive) | 57.5 µM (inactive) | 65.5 µM (inactive) | 75.2 µM (inactive) | > 100 µM (inactive) |  |  |  | > 100 µM (inactive) | > 100 µM (inactive) | > 100 µM (inactive) |  | > 100 µM (inactive) | 67 µM (inactive) | 80.4 µM (inactive) | > 100 µM (inactive) | 18.7 µM (inactive) |  | 
7 | Nc1c(Cl)ncnc1NCCCCCCCCCCCCNc1ncnc(Cl)c1N | 6.05 µM (inactive) | 8.24 µM (inactive) | 0.051 µM (active) | 7.03 µM (inactive) | 1.55 µM (inactive) | 3.12 µM (inactive) | < 0.01 µM (active) |  |  | < 0.01 µM (active) | 1.99 µM (inactive) | 1.9 µM (inactive) |  | 3.37 µM (inactive) | 2.14 µM (inactive) | 2.35 µM (inactive) | 4.18 µM (inactive) | 0.147 µM (active) | 2.05 µM (inactive) | 
8 | CC(=O)OCC(OC(C)=O)C(OC(C)=O)C(OC(C)=O)C(=O)CNn1c(-c2ccccc2Cl)nc2ccc(Br)cc2c1=O (centres undefined) | 55.7 µM (inactive) | > 100 µM (inactive) | 23.8 µM (inactive) | 96.4 µM (inactive) |  | > 100 µM (inactive) | 82 µM (inactive) |  |  | 62.2 µM (inactive) | 87.1 µM (inactive) | 76.9 µM (inactive) |  | > 100 µM (inactive) | > 100 µM (inactive) | > 100 µM (inactive) | > 100 µM (inactive) | 43.8 µM (inactive) | 30.6 µM (inactive) | 
9 | O=c1/c(=C/c2ccccn2)sc2nc3cc4c(cc3n12)OCCO4 | > 100 µM (inactive) | > 100 µM (inactive) |  | > 100 µM (inactive) | > 100 µM (inactive) | > 100 µM (inactive) | > 100 µM (inactive) | > 100 µM (inactive) | > 100 µM (inactive) | > 100 µM (inactive) | > 100 µM (inactive) | > 100 µM (inactive) | > 100 µM (inactive) |  | > 100 µM (inactive) | > 100 µM (inactive) | > 100 µM (inactive) |  | > 100 µM (inactive) | > 100 µM (inactive)
10 | COC(=O)C(=O)CC(=O)CCn1ncc(Cl)c(Cl)c1=O | 32.8 µM (inactive) | 14.3 µM (inactive) | 3.94 µM (inactive) | 11.5 µM (inactive) | 17.1 µM (inactive) | 25.9 µM (inactive) | 7.16 µM (inactive) |  |  | 12.8 µM (inactive) | 4.62 µM (inactive) | 13.3 µM (inactive) |  | 19.6 µM (inactive) | 14 µM (inactive) | 18.1 µM (inactive) | 31 µM (inactive) | 2.84 µM (inactive) | 10 µM (inactive) | 
11 | N#CC(C#N)=Cc1cccc(Oc2ccccc2)c1 | > 63.2 µM (inactive) | 29 µM (inactive) | 18.5 µM (inactive) | 22.7 µM (inactive) | 26.8 µM (inactive) | 22.3 µM (inactive) | 20.6 µM (inactive) |  |  | 23 µM (inactive) |  | 19.1 µM (inactive) |  | 18.4 µM (inactive) | 13.8 µM (inactive) | 21.2 µM (inactive) | 71.6 µM (inactive) | 8.93 µM (inactive) | 22.3 µM (inactive) | 
12 | COc1cc2c(cc1OCCCC(=O)Nc1cc(C(=O)Nc3cc(C(=O)NCCCN(C)C)n(C)n3)n(C)n1)N=CC1CCCN1C2=O (centres undefined) | 0.411 µM (active) | 13.5 µM (inactive) | 15.2 µM (inactive) | 17 µM (inactive) | 12.8 µM (inactive) | 34.9 µM (inactive) | 20.7 µM (inactive) | 16.8 µM (inactive) | 20 µM (inactive) | 18.5 µM (inactive) | 13.3 µM (inactive) | 22 µM (inactive) | 31.8 µM (inactive) | 21.7 µM (inactive) | 16.7 µM (inactive) | 16.4 µM (inactive) | 57.3 µM (inactive) | 12.9 µM (inactive) | 20.1 µM (inactive) | 
13 | CC(=O)/C=C/C=C(\C)CC/C=C(\C)CC(C)C | 22 µM (inactive) | 20.2 µM (inactive) | 13 µM (inactive) | 30.1 µM (inactive) | 28.9 µM (inactive) | 27.7 µM (inactive) | 18.3 µM (inactive) | 27.9 µM (inactive) |  | 26.4 µM (inactive) | 42.1 µM (inactive) | 23.7 µM (inactive) | 38.2 µM (inactive) | 21.7 µM (inactive) | 33.9 µM (inactive) | 20 µM (inactive) | 55.7 µM (inactive) | 16.1 µM (inactive) | 18.1 µM (inactive) | 53.5 µM (inactive)
14 | O=C1NC2(CCCCC2)C2=C1CCCCC2 | > 100 µM (inactive) | > 100 µM (inactive) | > 100 µM (inactive) | > 100 µM (inactive) | > 100 µM (inactive) | > 100 µM (inactive) | > 100 µM (inactive) |  |  | > 100 µM (inactive) | > 100 µM (inactive) | > 100 µM (inactive) |  | > 100 µM (inactive) | > 100 µM (inactive) | > 100 µM (inactive) | > 100 µM (inactive) | > 100 µM (inactive) | > 100 µM (inactive) | 
15 | C/C(=N\NC(=S)N1CCN(c2ccccn2)CC1)c1ccccn1 | 0.853 µM (active) | 0.00419 µM (active) |  | 0.0745 µM (active) | 0.00151 µM (active) | 0.129 µM (active) | 0.0403 µM (active) | 0.111 µM (active) |  | 0.00327 µM (active) | 0.331 µM (active) | 0.00281 µM (active) | 0.0304 µM (active) | 0.397 µM (active) | 0.208 µM (active) | 1.25 µM (inactive) | 0.0593 µM (active) | 0.0522 µM (active) | 0.00646 µM (active) | 0.129 µM (active)
16 | CCC1(CN(C)C)CC/C(=C\c2ccc(OC)c(OC)c2)C1=O (centres undefined) | 88.7 µM (inactive) | 76.6 µM (inactive) |  | 58.2 µM (inactive) | > 100 µM (inactive) | > 100 µM (inactive) | > 100 µM (inactive) |  |  | 97.9 µM (inactive) | > 100 µM (inactive) | > 100 µM (inactive) |  | > 100 µM (inactive) | > 100 µM (inactive) | > 100 µM (inactive) | > 100 µM (inactive) | < 0.01 µM (active) | > 69.3 µM (inactive) | 
17 | O=C(NC1CCC[C@H]1OC(=O)c1ccccc1)c1ccccc1 (some centres undefined) | 33.1 µM (inactive) |  | 32.2 µM (inactive) | 39.7 µM (inactive) | > 100 µM (inactive) | 69.8 µM (inactive) |  |  |  | 16.2 µM (inactive) | 30.8 µM (inactive) | > 100 µM (inactive) |  | > 100 µM (inactive) | > 100 µM (inactive) | > 100 µM (inactive) | 43.2 µM (inactive) | 47.2 µM (inactive) | 50.9 µM (inactive) | 
